Laboratory results taken from article PMC11129975, “A first-in-human phase I study of TAS-117, an allosteric AKT inhibitor, in patients with advanced solid tumors” (Cancer Chemotherapy and Pharmacology, 2024).
Marks after values point to notes of the source that are not given here.

Tests used:
[1] = system: KPL-4; conditions: oral dosing; KPL-4 (HER2 amplification, PIK3CA mutation); cited from earlier work
[2] = design: method as in data on file, Taiho Pharmaceutical Co., Ltd.; conditions: repeated dosing; ref data on file, Taiho Pharmaceutical Co., Ltd.; cited from earlier work
[3] = Plasma and urine pharmacokinetics of TAS-117 in patients; assay type: in vivo, human
Protocol: Blood samples for pharmacokinetic analysis were collected immediately prior to dosing (0 h) and at 0.5, 1, 2, 3, 4, 6, 8, 12, and 24 h post-dose on Day 1 and Day 21 of Cycle 1 for patients in the DEP (QD dosing). For patients who received intermittent dosing regimens, blood was collected immediately prior to dosing (0 h) and at 1, 2, 3, 4, 6, 8, 10, and 24 h post-dose on Cycle 1 Day 1; immediately prior to dosing (0 h) on Cycle 1 Days 3, 4, and 8; and immediately prior to dosing (0 h) and at 1, 2, 3, 4, 6, 8, 10, 24, 48, and 96 h post-dose on Cycle 1 Day 18. Urine samples for pharmacokinetic analysis were collected immediately prior to dosing (single sample collection) and from 0 to 6 h and from 6 to 12 h and 12 to 24 h post-dose on Day 1 of Cycle 1 for both QD and intermittent dosing. Blood samples for pharmacodynamic analysis were collected at pre-dose and 4, 8, and 24 h post-dose on Cycle 1 Day 1, and at pre-dose and 4 h post-dose on Cycle 1 Day 21 (QD dosing) or Cycle 1 Day 18 (intermittent dosing).
Descriptive data were used to summarize safety data and antitumor activity. Pharmacokinetic parameters were derived using non-compartmental analysis and summarized descriptively by dose level, study day, and study phase. […] The accumulation of TAS-117 was assessed by comparing pharmacokinetic parameters on Day 1 and Day 21 (QD) or Day 18 (intermittent dosing). Pharmacodynamic data were presented using summary statistics of the ratio of pPRAS40/total PRAS40 to baseline values (pre-dose) on Day 1 and Day 18 or 21, by dose level and treatment regimen. Pharmacogenomics data were summarized, and the relevance between biomarkers and efficacy was analyzed using Fisher’s Exact test.
P-values < 0.05 were considered significant. Missing data were not imputed, and analyses were performed using all available data. Plasma pharmacokinetic parameters were evaluated using Phoenix® WinNonlin® software (Pharsight Corporation as part of Certara, Princeton, NJ, US, Version 8.1 or 8.3). Statistical analyses were performed using SAS version 9.4 (SAS Institute; Cary, NC, US).

[4] = system: NCI-N87; conditions: oral dosing; NCI-N87 (HER2 amplification); cited from earlier work
[5] = DEP, Cycle 1 Day 1, 8 mg QD, n = 1
[6] = DEP, Cycle 1 Day 1, 16 mg QD, n = 6
[7] = DEP, Cycle 1 Day 1, 24 mg QD, n = 3
[8] = DEP, Cycle 1 Day 1, 24 mg QD, n = 2
[9] = DEP, Cycle 1 Day 21, 8 mg QD, n = 1
[10] = DEP, Cycle 1 Day 21, 16 mg QD, n = 3
[11] = DEP, Cycle 1 Day 21, 16 mg QD, n = 2
[12] = DEP, Day 21 vs Day 1, 16 mg QD, n = 3
[13] = RMP, Cycle 1 Day 1, 24 mg intermittent dosing (4 days on/3 days off), n = 6
[14] = RMP, Cycle 1 Day 1, 24 mg intermittent dosing (4 days on/3 days off), n = 5
[15] = RMP, Cycle 1 Day 1, 32 mg intermittent dosing (4 days on/3 days off), n = 4
[16] = RMP, Cycle 1 Day 18, 24 mg intermittent dosing (4 days on/3 days off), n = 5
[17] = RMP, Cycle 1 Day 18, 32 mg intermittent dosing (4 days on/3 days off), n = 1
[18] = RMP, Day 18 vs Day 1, 24 mg intermittent dosing, n = 5
[19] = RMP, Day 18 vs Day 1, 32 mg intermittent dosing, n = 1

C[C@]1(O)C[C@@](N)(c2ccc(-c3nc4n(c3-c3ccccc3)COc3ccncc3-4)cc2)C1 [TAS-117]
Antitumor activity [1]: demonstrated single-agent antitumor activity | Toxicity findings [2]: dysregulation of carbohydrate metabolism and atrophic changes in the lymphatic/hematopoietic organs and adipocytes | Dose proportionality of Cmax, AUClast and AUC0–24 ([3]; 8 to 32 mg dose range): dose proportional | AUC0–24 [3, 5]: 164 ng·h/mL | AUClast [3, 5]: 165 ng·h/mL | CLr [3, 5]: 4.11 L/h | Cmax [3, 5]: 8.82 ng/mL | t1/2 [3, 5]: 21.96 h | tmax [3, 5]: 1.93 h | Fe ([3]; DEP, Cycle 1 Day 1, 8 mg QD, n = 1, urinary excretion rate as percentage of dose): 8.45% | AUC0–24, Mean (SD) [3, 6]: 315 (73) ng·hr/mL | AUC0–24, gMean [3, 6]: 308 ng·h/mL | AUClast, Mean (SD) [3, 6]: 316 (73) ng·hr/mL | AUClast, gMean [3, 6]: 308 ng·h/mL | CLr, Mean (SD) [3, 6]: 5.20 (2.19) L/h | CLr, gMean [3, 6]: 4.78 L/h | Cmax, Mean (SD) [3, 6]: 25.1 (7.66) ng/mL | Cmax, gMean [3, 6]: 24.1 ng/mL | Fe, Mean (SD) [3, 6]: 10.43 (4.94) % | Fe, gMean [3, 6]: 9.20% | t1/2, Mean (SD) [3, 6]: 26.98 (6.06) h | t1/2, gMean [3, 6]: 26.40 h | tmax, median (min, max) [3, 6]: 2.98 (1.88, 3.89)^c h | AUC0–24, Mean (SD) [3, 7]: 438 (194) ng·hr/mL | AUC0–24, gMean [3, 7]: 407 ng·h/mL | AUClast, Mean (SD) [3, 7]: 438 (193) ng·hr/mL | AUClast, gMean [3, 7]: 408 ng·h/mL | CLr, Mean (SD) [3, 7]: 6.39 (2.72) L/h | CLr, gMean [3, 7]: 6.04 L/h | Cmax, Mean (SD) [3, 7]: 31.0 (15.7) ng/mL | Cmax, gMean [3, 7]: 28.6 ng/mL | Fe, Mean (SD) [3, 7]: 10.48 (2.73) % | Fe, gMean [3, 7]: 10.25% | tmax, median (min, max) [3, 7]: 3.98 (3.92, 6.00)^c h | t1/2, Mean (SD) [3, 8]: 23.06 (NC)^d h | t1/2, gMean [3, 8]: 22.61^d h | AUClast [3, 9]: 604 ng·h/mL | Cmax [3, 9]: 33.1 ng/mL | tmax [3, 9]: 7.85 h | AUC0–24, Mean (SD) [3, 10]: 865 (216) ng·hr/mL | AUC0–24, gMean [3, 10]: 846 ng·h/mL | AUClast, Mean (SD) [3, 10]: 864 (220) ng·hr/mL | AUClast, gMean [3, 10]: 844 ng·h/mL | Cmax, Mean (SD) [3, 10]: 61.4 (22.2) ng/mL | Cmax, gMean [3, 10]: 58.3 ng/mL | tmax, median (min, max) [3, 10]: 1.93 (1.87, 2.02)^c h | t1/2, Mean (SD) [3, 11]: 41.65 (NC)^d h | t1/2, gMean [3, 11]: 41.23^d h | Observed accumulation ratio of Cmax ([3]; DEP, Day 21 vs Day 1, 8 mg QD, n = 1): 3.75 | Observed accumulation ratio of AUC0–24, Mean (SD) [3, 12]: 2.84 (0.04) | Observed accumulation ratio of AUC0–24, gMean [3, 12]: 2.83 | Observed accumulation ratio of Cmax, Mean (SD) [3, 12]: 2.71 (0.48) | Observed accumulation ratio of Cmax, gMean [3, 12]: 2.69 | AUC0–24, Mean (SD) [3, 13]: 543 (108) ng·hr/mL | AUC0–24, gMean [3, 13]: 534 ng·h/mL | AUClast, Mean (SD) [3, 13]: 542 (107) ng·hr/mL | AUClast, gMean [3, 13]: 533 ng·h/mL | CLr, Mean (SD) [3, 13]: 4.55 (1.43) L/h | CLr, gMean [3, 13]: 4.34 L/h | Cmax, Mean (SD) [3, 13]: 42.1 (11.1) ng/mL | Cmax, gMean [3, 13]: 40.9 ng/mL | Fe, Mean (SD) [3, 13]: 10.02 (2.85) % | Fe, gMean [3, 13]: 9.65% | tmax, median (min, max) [3, 13]: 3.28 (0.95, 4.15)^c h | t1/2, Mean (SD) [3, 14]: 31.92 (10.77)^e h | t1/2, gMean [3, 14]: 30.44^e h | AUC0–24, Mean (SD) [3, 15]: 770 (155) ng·hr/mL | AUC0–24, gMean [3, 15]: 758 ng·h/mL | AUClast, Mean (SD) [3, 15]: 774 (162) ng·hr/mL | AUClast, gMean [3, 15]: 761 ng·h/mL | CLr, Mean (SD) [3, 15]: 4.12 (1.82) L/h | CLr, gMean [3, 15]: 3.80 L/h | Cmax, Mean (SD) [3, 15]: 60 (18.4) ng/mL | Cmax, gMean [3, 15]: 58.0 ng/mL | Fe, Mean (SD) [3, 15]: 9.32 (2.71) % | Fe, gMean [3, 15]: 9.01% | t1/2, Mean (SD) [3, 15]: 24.02 (3.80) h | t1/2, gMean [3, 15]: 23.81 h | tmax, median (min, max) [3, 15]: 2.43 (1.95, 4.03)^c h | AUC0–24, Mean (SD) [3, 16]: 1498 (500) ng·hr/mL | AUC0–24, gMean [3, 16]: 1433 ng·h/mL | AUClast, Mean (SD) [3, 16]: 3542 (1023) ng·hr/mL | AUClast, gMean [3, 16]: 3420 ng·h/mL | Cmax, Mean (SD) [3, 16]: 89.9 (37.4) ng/mL | Cmax, gMean [3, 16]: 83.8 ng/mL | t1/2, Mean (SD) [3, 16]: 49.31 (7.73) h | t1/2, gMean [3, 16]: 48.83 h | tmax, median (min, max) [3, 16]: 2.00 (0.98, 5.92)^c h | AUC0–24 [3, 17]: 2105 ng·h/mL | AUClast [3, 17]: 5558 ng·h/mL | Cmax [3, 17]: 160 ng/mL | t1/2 [3, 17]: 49.63 h | tmax [3, 17]: 1.00 h | Observed accumulation ratio of AUC0–24, Mean (SD) [3, 18]: 2.70 (0.37) | Observed accumulation ratio of AUC0–24, gMean [3, 18]: 2.68 | Observed accumulation ratio of Cmax, Mean (SD) [3, 18]: 2.06 (0.73) | Observed accumulation ratio of Cmax, gMean [3, 18]: 1.95 | Observed accumulation ratio of AUC0–24 [3, 19]: 2.69 | Observed accumulation ratio of Cmax [3, 19]: 2.50 | Steady state reached by ([3]; indicated by t1/2 data): ≤ 8 days | Antitumor activity [4]: demonstrated single-agent antitumor activity
